Assay results from ChEMBL document CHEMBL4130453, “Discovery of an Isothiazole-Based Phenylpropanoic Acid GPR120 Agonist as a Development Candidate for Type 2 Diabetes” (ACS Med Chem Lett, 2017).
In brackets after ≈: the same amount, converted by molar mass. Each block holds one molecule with its values, some of them ahead of it.

Tests used:
[1] = target: Free fatty acid receptor 4 (Homo sapiens, UniProt Q5NUL3); experiment: Agonist activity at human GPR120 short splice variant expressed in HEK293 cells assessed as increase in intracellular calcium flux incubated for 30 mins measured for 300 secs at 1 sec interval by Fluo-4 NW dye based FLIPR assay; type: functional, cell-based
[2] = target: T1, Free fatty acid receptor 4 (Homo sapiens, UniProt Q5NUL3); experiment: Agonist activity at PK-tagged human GPR120 long isoform expressed in CHOK1 cells co-expressing EA-tagged beta-arrestin assessed as beta-gal enzyme complex formation after 90 mins by enzyme fragment complementation assay; type: cell-based
T1 sequence (Q5NUL3 whole entry): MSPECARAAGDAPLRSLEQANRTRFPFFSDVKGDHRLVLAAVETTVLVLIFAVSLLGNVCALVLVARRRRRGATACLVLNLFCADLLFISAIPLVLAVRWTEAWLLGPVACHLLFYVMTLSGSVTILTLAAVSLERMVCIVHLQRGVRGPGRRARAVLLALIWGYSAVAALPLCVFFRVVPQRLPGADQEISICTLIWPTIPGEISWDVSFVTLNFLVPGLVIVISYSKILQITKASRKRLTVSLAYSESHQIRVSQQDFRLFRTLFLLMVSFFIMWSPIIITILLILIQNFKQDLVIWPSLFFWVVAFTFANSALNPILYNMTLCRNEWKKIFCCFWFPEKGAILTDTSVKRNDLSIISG

[3] = Metabolic stability in human liver microsomes assessed as parent compound remaining measured at 10 mins; type: ADME, microsome; conditions: read-out: Stability
[4] = Metabolic stability in mouse liver microsomes assessed as parent compound remaining measured at 10 mins; type: ADME, microsome; conditions: for remaining at 10 min: liver microsomes, read-out: Stability
[5] = Metabolic stability in rat liver microsomes assessed as parent compound remaining measured at 10 mins; type: ADME, microsome; conditions: for remaining at 10 min: liver microsomes, read-out: Stability
Mus musculus [6] = experiment: Antidiabetic activity in diet-induced obese C57BL/6 mouse assessed as reduction in plasma glucose delta AUC level at 1 mg/kg, po administered 30 mins prior to glucose challenge measured 90 mins post glucose challenge by OGTT relative to control; type: functional; set-up: scale not given: the % may be the effect or the level left
[7] = target: T2, Free fatty acid receptor 4 (Mus musculus, UniProt Q7TMA4); experiment: Agonist activity at mouse GPR120 by calcium flux assay; type: functional
T2 sequence (Q7TMA4 whole entry): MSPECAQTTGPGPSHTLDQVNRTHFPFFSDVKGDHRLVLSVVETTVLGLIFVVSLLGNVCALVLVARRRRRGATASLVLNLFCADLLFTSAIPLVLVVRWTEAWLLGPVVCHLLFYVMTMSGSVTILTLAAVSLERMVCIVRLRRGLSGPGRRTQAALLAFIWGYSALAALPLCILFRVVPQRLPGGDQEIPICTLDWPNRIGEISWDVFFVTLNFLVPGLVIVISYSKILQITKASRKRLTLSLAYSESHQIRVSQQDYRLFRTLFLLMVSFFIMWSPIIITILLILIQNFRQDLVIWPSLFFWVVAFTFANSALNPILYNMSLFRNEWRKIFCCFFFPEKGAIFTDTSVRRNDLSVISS

[8] = target: Free fatty acid receptor 1 (Homo sapiens, UniProt O14842); experiment: Agonist activity at human GPR40 by calcium flux assay; type: functional
Free fatty acid receptor 1, sequence (O14842 whole entry): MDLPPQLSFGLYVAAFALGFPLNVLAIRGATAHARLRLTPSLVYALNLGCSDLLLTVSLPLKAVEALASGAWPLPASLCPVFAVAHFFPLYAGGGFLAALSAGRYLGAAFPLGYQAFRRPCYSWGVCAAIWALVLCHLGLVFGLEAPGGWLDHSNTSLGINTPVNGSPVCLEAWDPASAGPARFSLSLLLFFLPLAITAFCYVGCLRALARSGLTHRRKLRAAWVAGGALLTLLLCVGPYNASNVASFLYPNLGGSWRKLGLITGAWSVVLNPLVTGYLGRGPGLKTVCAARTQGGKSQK

Mus musculus [9] = experiment: Antidiabetic activity in diet-induced obese C57BL/6 mouse assessed as reduction in plasma glucose delta AUC level at 3 mg/kg, po administered 30 mins prior to glucose challenge measured 90 mins post glucose challenge by OGTT relative to control; type: functional; set-up: scale not given: the % may be the effect or the level left
Mus musculus [10] = experiment: Antidiabetic activity in diet-induced obese C57BL/6 mouse assessed as reduction in plasma glucose delta AUC level administered orally 30 mins prior to glucose challenge measured 90 mins post glucose challenge by OGTT; type: functional, organism-based
Mus musculus [11] = experiment: Antidiabetic activity in diet-induced obese C57BL/6 mouse harboring wild type GPR120 assessed as reduction in plasma glucose delta AUC level at 60 mg/kg, po qd administered 30 mins prior to glucose challenge measured 90 mins post glucose challenge for 3 weeks; type: functional; set-up: scale not given: the % may be the effect or the level left
Mus musculus [12] = experiment: Antidiabetic activity in diet-induced obese C57BL/6 mouse assessed as reduction in plasma glucose delta AUC level at 0.3 mg/kg, po administered 30 mins prior to glucose challenge measured 90 mins post glucose challenge by OGTT relative to control; type: functional; set-up: scale not given: the % may be the effect or the level left
Mus musculus [13] = experiment: Antidiabetic activity in diet-induced obese C57BL/6 mouse assessed as reduction in plasma glucose delta AUC level at 0.1 mg/kg, po administered 30 mins prior to glucose challenge measured 90 mins post glucose challenge by OGTT relative to control; type: functional; set-up: scale not given: the % may be the effect or the level left
Mus musculus [14] = experiment: Antidiabetic activity in GPR120 knockout diet-induced obese C57BL/6 mouse assessed as reduction in plasma glucose delta AUC level at 60 mg/kg, po qd administered 30 mins prior to glucose challenge measured 90 mins post glucose challenge for 3 weeks; type: functional; set-up: scale not given: the % may be the effect or the level left
[15] = Inhibition of CYP450 (unknown origin) measured up to 10 uM; type: ADME; conditions: human
[16] = target: T3, PXR (nuclear receptor subfamily 1 group I member 2) (Homo sapiens, UniProt O75469); experiment: Activation of PXR (unknown origin) at 5 uM relative to control; conditions: read-out: Activity
T3 sequence (O75469 whole entry): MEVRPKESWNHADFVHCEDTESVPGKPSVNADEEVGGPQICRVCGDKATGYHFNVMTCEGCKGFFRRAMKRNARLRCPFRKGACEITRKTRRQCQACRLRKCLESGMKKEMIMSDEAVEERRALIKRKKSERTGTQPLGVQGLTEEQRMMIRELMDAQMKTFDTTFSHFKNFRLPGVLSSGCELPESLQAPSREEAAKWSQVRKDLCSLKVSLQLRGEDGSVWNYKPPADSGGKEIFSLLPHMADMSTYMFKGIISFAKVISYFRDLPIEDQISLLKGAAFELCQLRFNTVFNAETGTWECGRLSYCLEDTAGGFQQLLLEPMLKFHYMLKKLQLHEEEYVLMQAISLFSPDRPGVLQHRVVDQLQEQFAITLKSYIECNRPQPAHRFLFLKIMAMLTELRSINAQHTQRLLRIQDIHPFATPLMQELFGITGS

[17] = target: Voltage-gated inwardly rectifying potassium channel KCNH2 (Homo sapiens, UniProt Q12809); experiment: Inhibition of human ERG
Voltage-gated inwardly rectifying potassium channel KCNH2, sequence (Q12809 whole entry): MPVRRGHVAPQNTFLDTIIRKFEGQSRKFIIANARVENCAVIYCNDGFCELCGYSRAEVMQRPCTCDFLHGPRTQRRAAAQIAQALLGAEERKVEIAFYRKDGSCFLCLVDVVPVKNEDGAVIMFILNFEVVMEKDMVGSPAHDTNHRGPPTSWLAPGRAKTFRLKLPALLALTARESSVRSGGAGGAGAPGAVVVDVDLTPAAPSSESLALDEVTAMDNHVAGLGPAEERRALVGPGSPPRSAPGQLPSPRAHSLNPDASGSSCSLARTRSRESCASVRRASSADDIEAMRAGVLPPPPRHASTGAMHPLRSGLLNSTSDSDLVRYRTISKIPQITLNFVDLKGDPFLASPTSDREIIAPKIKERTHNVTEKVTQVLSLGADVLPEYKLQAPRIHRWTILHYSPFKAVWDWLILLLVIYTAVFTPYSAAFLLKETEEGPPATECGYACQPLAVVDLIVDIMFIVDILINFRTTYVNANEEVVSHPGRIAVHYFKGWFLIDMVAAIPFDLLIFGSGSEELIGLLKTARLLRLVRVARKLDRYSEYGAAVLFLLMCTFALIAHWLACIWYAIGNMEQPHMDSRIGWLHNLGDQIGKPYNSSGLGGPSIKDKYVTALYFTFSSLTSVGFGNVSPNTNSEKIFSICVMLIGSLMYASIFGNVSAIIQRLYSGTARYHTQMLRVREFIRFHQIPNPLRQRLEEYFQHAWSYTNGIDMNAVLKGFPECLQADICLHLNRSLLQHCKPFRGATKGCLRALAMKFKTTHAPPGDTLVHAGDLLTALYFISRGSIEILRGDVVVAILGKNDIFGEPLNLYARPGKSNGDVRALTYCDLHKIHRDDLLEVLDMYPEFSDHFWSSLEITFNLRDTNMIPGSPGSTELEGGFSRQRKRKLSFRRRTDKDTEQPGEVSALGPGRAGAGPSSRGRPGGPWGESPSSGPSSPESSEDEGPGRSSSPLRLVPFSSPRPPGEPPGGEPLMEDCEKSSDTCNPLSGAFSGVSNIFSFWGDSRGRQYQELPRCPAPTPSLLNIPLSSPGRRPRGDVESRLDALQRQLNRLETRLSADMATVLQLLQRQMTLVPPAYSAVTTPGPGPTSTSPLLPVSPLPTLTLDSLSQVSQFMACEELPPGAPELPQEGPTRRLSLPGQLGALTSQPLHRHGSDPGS

hERG (KCNH2) [18] = target: T4, hERG (KCNH2) (Homo sapiens, UniProt Q12809); experiment: Inhibition of human ERG at 3 uM by patch express assay relative to control
T4 sequence (Q12809 whole entry): as above

hERG (KCNH2) [19] = target: T4, hERG (KCNH2); experiment: Inhibition of human ERG at 10 uM by patch express assay relative to control
hERG (KCNH2) [20] = target: T4, hERG (KCNH2); experiment: Inhibition of human ERG at 30 uM by patch express assay relative to control
[21] = Protein binding in human plasma; type: ADME, cell-free; conditions: read-out: PPB (converted)
[22] = Protein binding in rat plasma; type: ADME, cell-free; conditions: read-out: PPB (converted)
[23] = Protein binding in mouse plasma; type: ADME, cell-free; conditions: read-out: PPB (converted)
[24] = Kinetic solubility of the compound in PBS; type: physicochemical; conditions: read-out: Kinetic_solubility
[25] = Apparent permeability from apical to basolateral side in MDCK cells; type: ADME, cell-based, Canis lupus familiaris; conditions: dog
[26] = Efflux ratio of apparent permeability from basolateral to apical side over apical to basolateral side in MDCK cells; type: ADME, cell-based, Canis lupus familiaris; conditions: dog
[27] = Oral bioavailability in SPF Sprague-Dawley rat at 10 mg/kg by LC-MS/MS analysis; type: ADME, organism-based; conditions: in vivo
[28] = Half life in SPF Sprague-Dawley rat at 10 mg/kg, po by LC-MS/MS analysis; type: ADME, organism-based; conditions: in vivo
[29] = Cmax in SPF Sprague-Dawley rat at 10 mg/kg, po by LC-MS/MS analysis; type: ADME, organism-based; set-up: dose 10 mg/kg, route oral; conditions: in vivo
[30] = AUClast in SPF Sprague-Dawley rat at 10 mg/kg, po by LC-MS/MS analysis; type: ADME, organism-based; set-up: dose 10 mg/kg, time 0 - last, route oral; conditions: in vivo
[31] = Cmax in DIO C57bl/6J mouse at 20 mg/kg, po administered via gavage by LC-MS/MS analysis; type: ADME, organism-based; set-up: dose 20 mg/kg, route oral; conditions: in vivo
[32] = AUClast in DIO C57bl/6J mouse at 20 mg/kg, po administered via gavage by LC-MS/MS analysis; type: ADME, organism-based; set-up: dose 20 mg/kg, route oral, time 0 - last; conditions: in vivo
[33] = Half life in DIO C57bl/6J mouse at 20 mg/kg, po administered via gavage by LC-MS/MS analysis; type: ADME, organism-based; conditions: in vivo
[34] = Ratio of drug uptake in DIO C57bl/6J mouse adipose tissue to plasma at 20 mg/kg, po administered via gavage; type: ADME, organism-based; conditions: adipose tissue and plasma

Compound: O=C(O)CCc1cc(F)c(OCc2c(-c3ccccc3)nsc2C(F)(F)F)c(F)c1
EC50 [1]: 160 nM

Compound: Cc1c(CCC(=O)O)cc(F)c(OCc2c(-c3ccc(Cl)cc3)nsc2C(F)(F)F)c1F
EC50 [1]: 99 nM

Compound: N#Cc1ccc(-c2nsc(C(F)(F)F)c2COc2c(F)cc(CCC(=O)O)cc2F)cc1
EC50 [1]: 672 nM

Compound: CCc1ccc(-c2nsc(C(F)(F)F)c2COc2ccc(CCC(=O)O)c(C)c2C)cc1
EC50 [1]: 120 nM | EC50 [2]: 210 nM

Compound: O=C(O)CCc1ccc(OCc2c(-c3ccc(Cl)cc3)nsc2C(F)(F)F)c(Br)c1
EC50 [1]: 31 nM

Compound: N#C[C@@H]1C[C@@H]2C[C@@H]2N1C(=O)[C@@H](N)C12CC3CC(CC(O)(C3)C1)C2 [SAXAGLIPTIN ANHYDROUS]
Activity (Mus musculus [6]): 87%

Compound: O=C(O)CCc1ccc(OCc2c(-c3ccc(Cl)cc3)nsc2C(F)(F)F)c(F)c1F
EC50 [1]: 86 nM

Compound: O=C(O)CCc1cc(F)c(OCc2c(-c3ccc(Cl)cc3F)nsc2C(F)(F)F)c(F)c1
EC50 [1]: 42 nM | remaining at 10 min [3]: 87 to 100% | remaining at 10 min [4]: 87 to 100% | remaining at 10 min [5]: 87 to 100% | EC50 [7]: 77 nM | EC50 [8]: > 5000 nM | Activity (Mus musculus [6]): 61% | Activity (Mus musculus [9]): 83% | Activity (Mus musculus [10]): Dose-dependent effect | Activity (Mus musculus [11]): 137% | Activity (Mus musculus [12]): 34% | Activity (Mus musculus [13]): 3% | Activity (Mus musculus [14]): 2% | inhibition (INH) [15]: Not Active | activity at 5 µM [16]: 25.4% | IC50 [17]: > 50000 nM | inhibition at 3 µM (hERG (KCNH2) [18]): 5.9% | inhibition at 10 µM (hERG (KCNH2) [19]): 11.2% | inhibition at 30 µM (hERG (KCNH2) [20]): 12.5% | fraction unbound [21]: 0.0013 | fraction unbound [22]: 0.0019 | fraction unbound [23]: 0.0032 | solubility kinetic [24]: 38.9 µM (≈ 19.3 µg/mL) | Papp A→B [25]: 17.5 ×10⁻⁶ cm/s | efflux ratio [26]: 1.05 | bioavailability [27]: 57.2% | half-life [28]: 0.98 h | Cmax [29]: 3560 ng/mL | AUC(0-t) [30]: 4470 ng·h/mL | Cmax [31]: 9270 ng/mL | AUC(0-t) [32]: 46800 ng·h/mL | half-life [33]: 5.23 h | Kp [34]: 0.08

The remaining lines, values ahead:

EC50 [1]: 191 nM
Compound: CCc1ccc(-c2sncc2COc2ccc(CCC(=O)O)c(C)c2C)cc1

EC50 [1]: 236 nM
Compound: O=C(O)CCc1ccc(OCc2c(-c3ccc(Cl)cc3)nsc2C(F)(F)F)cc1C(F)(F)F

EC50 [1]: 34 nM
Compound: CCc1ccc(-c2nsc(C(F)(F)F)c2COc2c(F)cc(CCC(=O)O)cc2F)cc1

EC50 [1]: 155 nM | remaining at 10 min [3]: 104% | Stability ([4]; microsomes, 10 min): 127% | Stability ([5]; microsomes, 10 min): 133%
Compound: Cc1c(CCC(=O)O)ccc(OCc2c(-c3ccc(Cl)cc3)nsc2C(F)(F)F)c1C

EC50 [1]: 25 nM | remaining at 10 min [3]: 87 to 100% | remaining at 10 min [4]: 87 to 100% | remaining at 10 min [5]: 87 to 100% | EC50 [7]: 102 nM | EC50 [8]: 3000 nM
Compound: O=C(O)CCc1cc(F)c(OCc2c(-c3ccc(Cl)c(F)c3)nsc2C(F)(F)F)c(F)c1

EC50 [1]: 332 nM
Compound: CCc1ccc(-c2nsc(C(F)(F)C(F)(F)F)c2COc2ccc(CCC(=O)O)c(C)c2C)cc1

EC50 [1]: 1640 nM
Compound: CCc1ccc(-c2nsc(C(C)C)c2COc2ccc(CCC(=O)O)c(C)c2C)cc1
